# Source: PubChem BioAssay (NCI)
#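 Grown in 96-well plates, cells were treated for 48 hours with each compound at five concentrations. Insufficient inhibition: endpoint recorded as highest concentration tested. TGI marks complete inhibition of growth.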
# Tests used:
# Assay in all cases: NCI-60 cell line screen, 48 h
# [1] = system: IGROV1 ovarian
# [2] = system: SNB-75 CNS
# [3] = system: SK-MEL-2 melanoma
# [4] = system: CAKI-1 renal
# [5] = system: UO-31 renal
# [6] = system: SR leukemia
# [7] = system: A549 NSCLC
# [8] = system: K-562 leukemia
# [9] = system: SK-MEL-5 melanoma
# [10] = system: BT-549 breast
# [11] = system: HCT-116 colon
# [12] = system: MOLT-4 leukemia
# [13] = system: U251 CNS
# [14] = system: PC-3 prostate
# [15] = system: HL-60(TB) leukemia
# [16] = system: UACC-62 melanoma
# [17] = system: MDA-N
# [18] = system: NCI-H23 lung
# [19] = system: SF-295 CNS
# [20] = system: LOX IMVI melanoma
# [21] = system: RPMI-8226 leukemia
# [22] = system: T-47D breast
# [23] = system: EKVX NSCLC
# [24] = system: RXF 393 renal
# [25] = system: OVCAR-8 ovarian
# [26] = system: COLO 205 colon
# [27] = system: CCRF-CEM leukemia
# [28] = system: OVCAR-5 ovarian
# [29] = system: M14 melanoma
# [30] = system: 786-0 renal
# [31] = system: SNB-19 CNS
# [32] = system: DU-145 prostate
# [33] = system: KM12 colon
# [34] = system: OVCAR-3 ovarian
# [35] = system: SW-620 colon
# [36] = system: NCI/ADR-RES ovarian
# [37] = system: HS 578T breast
# [38] = system: SK-MEL-28 melanoma
# [39] = system: SN12C renal
# [40] = system: ACHN renal
# [41] = system: MDA-MB-231 breast
# [42] = system: A498 renal
# [43] = system: HCT-15 colon
# [44] = system: NCI-H460 lung
# [45] = system: OVCAR-4 ovarian
# [46] = system: SF-268 CNS
# [47] = system: UACC-257 melanoma
# [48] = system: MDA-MB-435
# [49] = system: NCI-H522 lung
# [50] = system: NCI-H226 lung
# [51] = system: MCF7 breast
# [52] = system: SK-OV-3 ovarian
# [53] = system: HOP-92 NSCLC
# [54] = system: MALME-3M melanoma
# [55] = system: HT29 colon
# [56] = system: SF-539 CNS
# [57] = system: HOP-62 NSCLC
# [58] = system: TK-10 renal
compound,measurement,setting,value
CCOC(=O)CCC(NC(=O)c1ccc(OCc2nc3cc(C(F)(F)F)ccc3nc2-c2ccccc2)cc1)C(=O)OCC (centres undefined),TGI,[1],> 100 µM
same,TGI,[2],52.1 µM
same,TGI,[3],54.1 µM
same,TGI,[4],> 100 µM
same,TGI,[5],> 100 µM
same,TGI,[6],> 100 µM
same,TGI,[7],> 100 µM
same,TGI,[8],> 100 µM
same,TGI,[9],60.4 µM
same,TGI,[10],> 100 µM
same,TGI,[11],> 100 µM
same,TGI,[12],> 100 µM
same,TGI,[13],> 100 µM
same,TGI,[14],> 100 µM
same,TGI,[15],> 100 µM
same,TGI,[16],> 100 µM
same,TGI,[17],> 100 µM
same,TGI,[18],> 100 µM
same,TGI,[19],> 100 µM
same,TGI,[20],> 100 µM
same,TGI,[21],> 100 µM
same,TGI,[22],> 100 µM
same,TGI,[23],> 100 µM
same,TGI,[24],> 100 µM
same,TGI,[25],> 100 µM
same,TGI,[26],32.3 µM
same,TGI,[27],> 100 µM
same,TGI,[28],> 100 µM
same,TGI,[29],> 100 µM
same,TGI,[30],> 100 µM
same,TGI,[31],> 100 µM
same,TGI,[32],> 100 µM
same,TGI,[33],> 100 µM
same,TGI,[34],> 100 µM
same,TGI,[35],> 100 µM
same,TGI,[36],> 100 µM
same,TGI,[37],> 100 µM
same,TGI,[38],> 100 µM
same,TGI,[39],> 100 µM
same,TGI,[40],> 100 µM
same,TGI,[41],> 100 µM
same,TGI,[42],> 100 µM
same,TGI,[43],> 100 µM
same,TGI,[44],> 100 µM
same,TGI,[45],38.4 µM
same,TGI,[46],> 100 µM
same,TGI,[47],> 100 µM
same,TGI,[48],> 100 µM
same,TGI,[49],> 100 µM
same,TGI,[50],> 100 µM
same,TGI,[51],19.4 µM
same,TGI,[52],> 100 µM
same,TGI,[53],> 100 µM
same,TGI,[54],> 100 µM
same,TGI,[55],> 100 µM
same,TGI,[56],> 100 µM
CC(CO)(CO)N=Cc1cc(I)cc(I)c1O,TGI,[1],33.3 µM
same,TGI,[2],34.8 µM
same,TGI,[3],27.4 µM
same,TGI,[4],68.2 µM
same,TGI,[5],34.6 µM
same,TGI,[6],54.1 µM
same,TGI,[7],> 100 µM
same,TGI,[8],83.5 µM
same,TGI,[9],28.5 µM
same,TGI,[10],36.4 µM
same,TGI,[11],31.3 µM
same,TGI,[57],25 µM
same,TGI,[12],47.5 µM
same,TGI,[13],28.3 µM
same,TGI,[14],32.1 µM
same,TGI,[15],29.6 µM
same,TGI,[16],30.7 µM
same,TGI,[17],64.2 µM
same,TGI,[18],58.7 µM
same,TGI,[19],47.3 µM
same,TGI,[20],24.2 µM
same,TGI,[58],84.2 µM
same,TGI,[21],> 100 µM
same,TGI,[22],> 100 µM
same,TGI,[23],54.2 µM
same,TGI,[24],26.5 µM
same,TGI,[25],48.5 µM
same,TGI,[26],35.3 µM
same,TGI,[27],44.5 µM
same,TGI,[28],53.7 µM
same,TGI,[29],39.3 µM
same,TGI,[30],30.9 µM
same,TGI,[31],48.9 µM
same,TGI,[32],29.8 µM
same,TGI,[33],28.2 µM
same,TGI,[34],29.2 µM
same,TGI,[35],53 µM
same,TGI,[36],63.2 µM
same,TGI,[37],74 µM
same,TGI,[38],38.7 µM
same,TGI,[39],31.4 µM
same,TGI,[40],69.9 µM
same,TGI,[41],38.7 µM
same,TGI,[42],65.4 µM
same,TGI,[43],34.8 µM
same,TGI,[44],55 µM
same,TGI,[45],37.2 µM
same,TGI,[46],36.5 µM
same,TGI,[47],45.1 µM
same,TGI,[48],40.3 µM
same,TGI,[49],49.4 µM
same,TGI,[50],34.7 µM
same,TGI,[51],46.3 µM
same,TGI,[52],41.9 µM
same,TGI,[53],32.9 µM
same,TGI,[54],28.5 µM
same,TGI,[55],44.6 µM
same,TGI,[56],31.3 µM
